Patent publication US20230028293A1, “MULTIPLE MYELOMA COMBINATION THERAPIES BASED ON PROTEIN TRANSLATION INHIBITORS AND IMMUNOMODULATORS” (The Regents of the University of Colorado, a body corporate, priority 2019, published 2023)
“Also recorded” adds a separate entry of the source.

Columns and labels:
[1] = tested on: U266, H929, MM1.S, MM1.R and RPMI-8226 MM cell lines; assay: MM cell line proliferation / cytotoxicity assay (CellTiter-Glo or MTS); type: cell-based; settings: range over five MM cell lines, 96 h incubation; read-out: EC50 of inhibition of cell proliferation
Experimental: Omacetaxine was tested in MM cell lines in vitro and in MM patient bone marrow aspirates ex vivo. The reported cytotoxicity of omacetaxine was verified in cell culture using the U266, H929, MM1.S, MM1.R and RPMI-8226 MM cell lines. […] In a timecourse study, omacetaxine-mediated induction of apoptosis started at 2 h, and cell death began after 24 h (FIGS. 1B, 1C, and 2A).
(§1) Either CellTiter-Glo Luminescent Cell Viability or CellTiter 96 AQueous MTS Cell Proliferation assay (Promega, Madison Wis.) were used to generate dose response curves of myeloma cell line proliferation treated with various anti-myeloma agents. Working solutions of CellTiter-Glo or CellTiter AQueous reagent were prepared per manufacturer instructions. Cells were combined with drug of interest at a concentration of 50,000 cells/well and incubated in 96-well culture plates at 37° C. for 96 h. After the incubation, the viability or proliferation results were obtained via Vmax Kinetic Microplate Reader (Molecular Devices, Sunnyvale Calif.). Cell line toxicity was also measured using high throughput flow cytometry.

[2] = tested on: primary MM cells from patient bone marrow aspirates; assay: cells
Experimental: The effect of omacetaxine in primary patient samples was tested by incubating marrow mononuclear cells (MNCs) from patient bone marrow aspirates for 48 h and measuring the number of surviving MM cells by multiparameter flow cytometry.
De-identified primary myeloma samples were thawed in a 37° C. water bath and then incubated with 100 μg DNase I (Sigma-Aldrich) for 90 sec. Samples were washed twice with 10 mL Dulbecco's Phosphate Buffered Saline without calcium and magnesium (DPBS). Cells were cultured in RPMI1640 medium containing L-glutamine with 10% FBS and 100 U/mL penicillin, 100 ug/mL streptomycin (Thermo Fisher Scientific), and 2 ng/mL interleukin 6 IL-6 (PreproTech) at 37° C. for 2 h. Cells were then transferred to 96-well plates at […] cells/mL (90,000 MNCs per well) and treated for 48 h. Stock solutions of drug were prepared at 10 mM in dimethylsulfoxide (DMSO) and stored at −20° C. until use.
After 48 h treatment, the primary samples were washed in 1× cold DPBS and re-suspended in BD Brilliant Stain Buffer (BD Biosciences, San Jose Calif.) in a 96-well V-bottom plate. Cells were treated with FcR Blocking Reagent (Miltenyi Biotec, San Diego Calif.) for 5 min and then surface stained with anti-CD19-BV786 anti-CD45-BV510, anti-CD38-PerCP-Cy5.5, anti-CD138-BV421, and anti-CD319-Alexa647 or anti-CD46-Alexa647 antibodies for 10 min on ice. Intracellular staining with anti-kappa-BV605 and anti-lambda-PE light chains was performed after paraformaldehyde fixation and permeabilization. All flow cytometry antibodies were purchased from BD Biosciences. After staining, samples were washed and resuspended with 100 μl DPBS containing 2% FBS (FACS buffer). Viability staining was done using the LIVE/DEAD Fixable Near-IR Dead Cell Stain Kit (Invitrogen, Carlsbad Calif.) by adding 1 μl of 10-fold diluted stain to each well. Flow cytometry data was collected using a BD FACSCelesta Multicolor Cell Analyzer (BD Biosciences, San Jose Calif.) equipped with a HTS. For each sample a fixed volume of 175 μL was collected by the HTS. Flow cytometry data analysis was completed using FlowJo software (FlowJo LLC, Ashland Oreg.). Myeloma populations were analyzed by gating CD19− CD45+/−CD38+ CD138+ based on the cells expressing clonal light chain restriction in each sample.

MCL1 = assay: Quantitative intracellular flow cytometry of MCL1; type: cell-based; settings: 50 nM, 6 h
Experimental: (§2) Quantitative flow cytometry was used to measure MCL1 and BCL2 densities per cell. Anti-MCL1 and anti-BCL2 antibodies were labeled with Alexa Fluor 647 (Molecular Probes/life Technologies) according to manufacturer's instructions. Intracellular staining of MCL1 and BCL2 was conducted following permeabilization with the Cytofix/Cytoperm kit (BD). Mean fluorescence intensity was converted to molecules of equivalent soluble fluorochrome (MESF) by generating a standard curve with Quantum™ beads (Bangs Labs, Fishers, Ind.). The fluorophore-to-antibody ratio of the labeled antibodies was determined using Simply Cellular® anti-mouse IgG beads (Bangs Labs). Finally, conversion of MESF to cell surface antigen density was calculated by dividing by the fluorophore-to-antibody ratio.

BCL2 = assay: Quantitative intracellular flow cytometry of BCL2; type: cell-based; settings: 50 nM, 6 h
Experimental: as §2

c-MYC = assay: Quantitative flow cytometry of c-MYC antigen density; type: cell-based; settings: 24 h treatment
MM cell lines [3] = assay: Two-drug combination matrix in MM cell lines, ZIP synergy; type: cell-based
Experimental: In this example, possible candidates for use in combination with omacetaxine were examined, focusing on those that are currently clinically available. Omacetaxine was applies in combination with various anti-myeloma agents to MM cell lines Amo-1, L363, and U266 in two-drug combination matrices, with cell viability being measured after 96 h incubation. […] The […] for synergy of omacetaxine with Len and Pom were 13.89 and 11.24, respectively, with a broad range of concentrations showing a productive interaction (FIGS. 6B and 6D).
as §1
Drug combination studies were set up using a full matrix design with myeloma cell lines or primary samples. Synergy was calculated using ZIP delta score via the SnergyFinder online tool (synergyfinder.fimm.fi). Combination index values were calculated using the CompuSyn software (ComboSyn Inc).

[4] = tested on: bone marrow plasma cells from normal donors; assay: Sensitivity of healthy donor bone marrow plasma cells; type: cell-based; settings: 50 nM, 48 h incubation
MM cell lines [5] = assay: Two-drug combination matrix in MM cell lines, ZIP synergy; type: cell-based; remark: listed apart in the source

Structure (SMILES): COC(=O)C[C@](O)(CCCC(C)(C)O)C(=O)O[C@@H]1C(OC)=C[C@]23CCCN2CCc2cc4c(cc2[C@H]13)OCO4 [omacetaxine, Omacetaxine mepesuccinate]
- EC50 [1]: 15 to 35 nM
- cytotoxicity in relation to MCL1 priming (BH3 profiling) of primary samples [2]: potent anti-myeloma activity in samples that were not MCL1 primed
- patient samples with >50% reduction in viable MM cells (39/50) ([2]; 50 nM, 48 h, 50 patient samples): 78%
- cross-resistance in relapsed/refractory patients resistant to PI and IMiDs ([2]; 50 nM, 48 h ex vivo): did not show cross-resistance
- EC50 ([2]; Homo sapiens, 48 h, read-out: EC50 of decrease in MM cell viability ex vivo): 25 to 100 nM
- MCL1 expression in myeloma cells (MCL1): rapidly downregulated
- Bcl-2 level in myeloma cells (BCL2): does not decrease
- c-MYC protein level in MM cell lines (c-MYC): decreases
- combination with dexamethasone versus single agent omacetaxine (MM cell lines [3]; L363 and U266 cells): decreased activity
- synergy with lenalidomide (cell viability) (MM cell lines [3]; combination with Len, 96 h): synergistic in all cell lines tested
- synergy with pomalidomide (cell viability) (MM cell lines [3]; omacetaxine combined with Pom, 96 h): synergistic in all cell lines tested
- synergy with dexamethasone, over cell lines tested (MM cell lines [3]; three MM cell lines): synergistic in only ⅓ MM cell lines tested
- cytotoxicity to normal plasma cells [4]: cytotoxic
- synergy with CC-220 (MM cell lines [5]; H929 cells): synergistic
- combination with dexamethasone (MM cell lines [5]; MM.1S cells): synergistic
- ZIP δ-score for synergy with Len (MM cell lines [5]; combination with lenalidomide, MM.1S cells, 96 h): 13.89
- ZIP δ-score for synergy with Pom (MM cell lines [5]; omacetaxine with pomalidomide, MM.1S cells, 96 h): 11.24
- synergy with the PI bortezomib (MM cell lines [5]; three MM cell lines (U266, MM.1S, H929)): lack of synergy; also recorded: no significant enhanced activity
